Laboratory results: patent US20250387481A1, “PRE-TREATED T CELLS FOR USE AS A MEDICAMENT” (STICHTING HET NEDERLANDS KANKER INSTITUUT-ANTONI VAN …, priority 2022, published 2025)

Assays:
MMTV-PyMT tumors = test: Drug treatment in vivo of mice bearing MMTV-PyMT tumors; design: species or system mouse
Method: For tumor generation, tumor organoids were transplanted into the 4th mammary fat pad of FVB female mice. Rimadyl (0.067 mg/ml, Zoetis) was administered to mice in the drinking water from 24 h before surgery and for 48 h after surgery. Mice were also treated with temgesic (0.1 mg/kg, Indivior Europe Limited), 1 hr before and 12 h after surgery. Mice were anesthetized with isoflurane (2%, v/v) and their eyes were covered with duratears (Alcon). About 100,000 single cells derived from KB1P organoids or 200,000 single cells derived from MMTV-PyMT organoids were injected in 30 μl of BME (Amsbio, Cat. No. 3533-005-02). Mice were weighed and monitored three times a week after transplantation of tumor organoids. Tumor volume was measured with calipers three times weekly. The researcher performing the measurement of tumor volume was blinded to the treatment group. For survival experiments, endpoint was reached when tumor reached 2000 mm3. For specific experiments, reference is made to the schematic representations of treatment timelines depicted in the figures.
Once tumors were established and reached a size of ˜7×7 mm, mice were randomized into treatment groups with the following drug dosages and timeline: • AC+T treatment: every 14 days, cyclophosphamide (144 mg/kg, administered via intraperitoneal injection), doxorubicin (5 mg/kg, administered via intravenous injection) and docetaxel (25 mg/kg, resuspended in acetonitrile containing 0.1% acetic acid, administered via intravenous injection). Doxorubicin hydrochloride (Adriamycin) and cyclophosphamide (C), when combined in a treatment, are herein referred to as “AC”. Taxanes, as broadly described and disclosed herein, are referred to as “T”. […]

[1] = tested on: human lung tumor organoids; test: Tumor organoids killing assay with autologous tumor-reactive T cells; assay type: cell-based; details: tumor-reactive T cells pre-treated with 10 nmol/L docetaxel
Method: To express luciferase in the tumor organoids, we used pLenti CMV Puro LUC (w168-1; Plasmid #17477; Addgene). Tumor-reactive PBMC were thawed in pre-warmed T cell medium and incubated for 15 minutes with 25 U/ml Benzonase. After washing, cells were re-suspended at 2−3×10^6 cells/ml in T cell medium and cultured overnight at 37° C. The day after, PBMC were incubated with (or without) 10 nmol/L docetaxel for 48 hr. To determine the sensitivity of tumor and healthy organoids to T cell-mediated killing, flatbottom non-tissue culture treated plates were coated with 5 μg/ml αCD28 and kept at 4° C. overnight prior to co-culture. Tumor organoids were previously transduced with luciferase reporter gene. Organoids were isolated from Geltrex 48 hours prior to co-culture and stimulated with 200 ng/ml IFNγ for 24 hr prior to co-culture. The next day, part of the organoids was dissociated to single cells and counted using a hemocytometer. […] At the end of the 72 hours, tumor and healthy organoids viability in the different conditions was evaluated by microscopy, taking bright-field pictures at 5 and 10× magnification. Tumor cell viability in the different conditions was also measured by luciferase reporter assay using 3 μg/mL luciferin. Luminescence was measured with a Tecan reader (1,000 ms exposure).

Structure (SMILES): CC(=O)O[C@@]12CO[C@@H]1C[C@H](O)[C@@]1(C)C(=O)[C@H](O)C3=C(C)[C@@H](OC(=O)[C@H](O)[C@@H](NC(=O)OC(C)(C)C)c4ccccc4)C[C@@](O)([C@@H](OC(=O)c4ccccc4)[C@H]21)C3(C)C [docetaxel]
- anti-tumor effects of docetaxel (survival) upon T cell depletion (MMTV-PyMT tumors; depletion of CD4 alone, CD8 alone or both): abrogated the anti-tumor effects
- tumor outgrowth (MMTV-PyMT tumors; docetaxel 25 mg/kg intravenous every 14 days vs vehicle): delayed tumor outgrowth
- accumulation of mitotic figures in tumors (MMTV-PyMT tumors; tumors isolated 24 h after the second docetaxel administration): did not observe an accumulation of mitotic figures
- anti-tumor capacity against tumor organoids (organoid viability, luciferase) [1]: increased their anti-tumor capacity
